Assay results taken from patent US20250000881A1, “TREATMENT OF TREATMENT RESISTANT […] PSILOCYBIN” (COMPASS […], priority 2021, published 2025).
Where “and” joins values, the source holds several entries; their conditions need not be identical. Equal values may be shown once.

Assays:
Format in all cases: in vivo, human
[1] = system: participants with TRD from Example 2; test: Long term follow-up study: MADRS responders, remitters, sustained responders to week 52
Experimental: (§1) The following example is a long term follow up of study of a sustained responder population from Example 2. 58 participants from Example 2 were selected for a long term 52 week follow up study. Of the 58 patients, 22 received a 25 mg dose of psilocybin, 19 received a 10 mg dose of psilocybin, and 17 received a 1 mg dose of psilocybin. […] None of the patients in this study received treatment for depression before their week 12 MADRS visit in Example 2. Patients were analyzed for a change in MADRS total score from Baseline to 12, 16, 20, 24, 28, 40, and 52 weeks.
The secondary endpoint of this study was to determine the change in MADRS total score from Baseline to 12, 16, 20, 24, 28, 40, and 52 weeks post treatment. […] Note, “n*” changed to account for subjects that dropped out the long term study.

[2] = system: adult subjects with TRD; test: Phase 2b trial in TRD: Work and Social Adjustment Scale (WSAS); details: 25 mg vs 1 mg, week 3
Experimental: (§2) Other objectives were to evaluate the effects of psilocybin on quality of life and wellbeing, functioning and associated disability, cognitive function, and anxiety compared to 1 mg psilocybin on: • (a) Quality of life in subject EuroQoL (EQ)-5 dimension-3 level scale (EQ-5D-3L) score change from Baseline to week 3. This will also be assessed at week 12. This assessment was not mandatory. • (b) Quality of life in caregiver EQ-5D-3L score change from Baseline to week 3. This was assessed at week 12. • (c) Functioning and associated disability in the Sheehan Disability Scale (SDS) score change from Baseline to week 3. This was also assessed at week 12. • (d) Cognitive function as measured by the Digit Symbol Substitution Test (DSST) score change from baseline to week 3. This was assessed at day 1 and week 12. • (e) Level of anxiety as measured using the change in Generalised Anxiety Disorder 7 item Scale (GAD-7) total score change from baseline to week 3. This was assessed at week 12. • (f) Subject determined level of depression as measured using the change in Quick Inventory of Depressive Symptomatology Self-Rated (QIDS-SR-16) total score from Baseline to week 3. […] This was assessed at week 12. • (h) To evaluate the impact of different psilocybin doses on real life functional activity estimated from passive data streams collected on a mobile app on subjects' mobile phones. […]

[3] = system: adult subjects with TRD; test: Phase 2b trial in TRD: EQ-5D-3L and EuroQoL Visual Analogue Scale quality of life; details: 25 mg vs 1 mg, week 3
Experimental: as §2

[4] = system: adult subjects with TRD; test: Phase 2b trial in TRD: Digit Symbol Substitution Test (DSST); details: 25 mg vs 1 mg groups, week 3
Experimental: as §2

[5] = system: adult subjects with TRD; test: Phase 2b trial in TRD: Positive and Negative Affect Schedule (PANAS); details: 25 mg vs 1 mg group, week 3
Experimental: as §2

[6] = system: participants with TRD from Example 2; test: Long term follow-up study: time to any depressive event (KM quartiles)
Experimental: as §1
The primary endpoint of this study was to determine the median time to a depressive event after administration of psilocybin. The depressive event includes: • Initiation of new antidepressant treatment (first new antidepressant treatment in time period only); • Hospitalization due to depression/suicidality; • Suicide attempt, prevention of an imminent suicide attempt, or completed suicide; • Increased suicidality measured by worsening on MADRS item 10; • Active suicidal ideation measured by the C-SSRS; • MADRS worsening; and • Discontinuation for adverse event or lack of efficacy.

SMILES: CN(C)CCc1c[nH]c2cccc(OP(=O)(O)O)c12 [COMP360, psilocybin]
- MADRS remitters (MADRS total score≤10) ([1]; 1 mg (N = 17), Week 3): 0/11
- MADRS remitters (MADRS total score≤10) ([1]; 1 mg (N = 17), Week 9): 0/8
- MADRS relaxed sustained responders ([1]; 1 mg (N = 17), Week 12): 0/7
- MADRS remitters (MADRS total score≤10) ([1]; 1 mg (N = 17), Week 12): 0/7
- MADRS sustained responders (response at Week 3 and all subsequent visits) ([1]; 1 mg (N = 17), Week 12): 0/7
- MADRS relaxed sustained responders ([1]; 1 mg (N = 17), Week 16): 0/5
- MADRS remitters (MADRS total score≤10) ([1]; 1 mg (N = 17), Week 16): 0/5
- MADRS responders (≥50% reduction from baseline in MADRS total score) ([1]; 1 mg (N = 17), Week 16): 0/5
- MADRS sustained responders (response at Week 3 and all subsequent visits) ([1]; 1 mg (N = 17), Week 16): 0/5
- MADRS relaxed sustained responders ([1]; 1 mg (N = 17), Week 20): 0/4
- MADRS remitters (MADRS total score≤10) ([1]; 1 mg (N = 17), Week 20): 0/4
- MADRS sustained responders (response at Week 3 and all subsequent visits) ([1]; 1 mg (N = 17), Week 20): 0/4
- MADRS sustained responders (response at Week 3 and all subsequent visits) ([1]; 1 mg (N = 17), Week 24): 0/4
- MADRS relaxed sustained responders ([1]; 1 mg (N = 17), Week 28): 0/4
- MADRS remitters (MADRS total score≤10) ([1]; 1 mg (N = 17), Week 28): 0/4
- MADRS sustained responders (response at Week 3 and all subsequent visits) ([1]; 1 mg (N = 17), Week 28): 0/4
- MADRS relaxed sustained responders ([1]; 1 mg (N = 17), Week 40): 0/4
- MADRS sustained responders (response at Week 3 and all subsequent visits) ([1]; 1 mg (N = 17), Week 40): 0/4
- MADRS relaxed sustained responders ([1]; 1 mg (N = 17), Week 52): 0/4
- MADRS remitters (MADRS total score≤10) ([1]; 1 mg (N = 17), Week 52): 0/4
- MADRS responders (≥50% reduction from baseline in MADRS total score) ([1]; 1 mg (N = 17), Week 52): 0/4
- MADRS sustained responders (response at Week 3 and all subsequent visits) ([1]; 1 mg (N = 17), Week 52): 0/4
- MADRS remitters (MADRS total score≤10) ([1]; 10 mg (N = 19), Week 16): 0/5
- MADRS relaxed sustained responders ([1]; 10 mg (N = 19), Week 20): 0/3
- MADRS sustained responders (response at Week 3 and all subsequent visits) ([1]; 10 mg (N = 19), Week 20): 0/3
- MADRS sustained responders (response at Week 3 and all subsequent visits) ([1]; 10 mg (N = 19), Week 24): 0/3
- MADRS sustained responders (response at Week 3 and all subsequent visits) ([1]; 10 mg (N = 19), Week 28): 0/4
- MADRS sustained responders (response at Week 3 and all subsequent visits) ([1]; 10 mg (N = 19), Week 40): 0/5
- MADRS sustained responders (response at Week 3 and all subsequent visits) ([1]; 10 mg (N = 19), Week 52): 0/5
- MADRS relaxed sustained responders ([1]; 25 mg (N = 22), Week 40): 0/6
- MADRS remitters (MADRS total score≤10) ([1]; 25 mg (N = 22), Week 40): 0/6
- MADRS sustained responders (response at Week 3 and all subsequent visits) ([1]; 25 mg (N = 22), Week 40): 0/6
- MADRS remitters (MADRS total score≤10) ([1]; 25 mg (N = 22), Week 52): 0/6
- MADRS sustained responders (response at Week 3 and all subsequent visits) ([1]; 25 mg (N = 22), Week 52): 0/6
- WSAS treatment difference [2]: −5.11
- EQ-5D-3L total score, least squares mean treatment difference [3]: 0.06
- EuroQoL Visual Analogue Scale treatment difference [3]: 6.77
- DSST least squares mean treatment difference [4]: 1.32
- PANAS negative affect, least squares mean (95% confidence intervals) treatment difference [5]: −3.18 (−5.59, −0.77)
- PANAS positive affect, least squares mean (95% confidence intervals) treatment difference [5]: 6.17 (3.53, 8.82)
- Time to any depressive event, KM Q1, estimate (95% CI) ([6]; 1 mg (N = 17)): 6.0 (2.0, 14.0) days
- Time to any depressive event, KM Q2 (median), estimate (95% CI) ([6]; 1 mg (N = 17)): 21 days and 21.0 (3.0, 78.0) days
- Time to any depressive event, KM Q3, estimate (95% CI) ([6]; 1 mg (N = 17)): 78.0 (21.0, —) days
- Time to any depressive event, KM Q1, estimate (95% CI) ([6]; 10 mg (N = 19)): 19.0 (2.0, 41.0) days
- Time to any depressive event, KM Q2 (median), estimate (95% CI) ([6]; 10 mg (N = 19)): 43 days and 43.0 (19.0, 142.0) days
- Time to any depressive event, KM Q1, estimate (95% CI) ([6]; 25 mg (N = 22)): 24.0 (2.0, 132.0) days
